Reference: patent US9795607B2, “Substituted pyrrolopyrimidine compounds, compositions thereof, and methods of treatment therewith” (Signal Pharmaceutical, LLC, priority 2013, dated 2017)

System: Triple negative breast cancer cell line CAL51
Assay: Cell Titer Glo proliferation assay, CAL51
Format: cell-based
Conditions: Homo sapiens, CAL-51; CAL51 cell proliferation (Table 1); read-out: Act. Level
Protocol: Cell Titer Glo Proliferation Assay.
Triple negative breast cancer cell line CAL51 was purchased from DSMZ. […] Allcell lines were maintained in growth media consisting of 90% high glucose Dulbecco's Modified Eagle Medium or RPMI1640 (Invitrogen), 10% fetal bovine serum (Hyclone), and 2 mM L-glutamine (Invitrogen). […] After overnight culture, compound stock (30 mM) was diluted serially in DMSO, further diluted in growth media, and was added to each well as a 10× concentrated solution in a volume of 11 μL, mixed, and allowed to incubate with cells. The compound vehicle (DMSO) was maintained at a final concentration of 0.2% in all wells. After 72 h, 100 μL of Cell Titer Glo solution (Promega) was added to each well of the 96-well plate. The plate was placed on a shaker for 2 minutes. After 10 minutes incubation, the luminescence signal was detected with Envision microplate reader (Perkin Elmer).

CCc1cc(C(=O)NC)ccc1Nc1nc(OC2CCOCC2)c2c(-c3ccc4nc(C)oc4c3)c[nH]c2n1 [Example 435, 3-ethyl-N-methyl-4-(5-(2-methylbenzo[d]oxazol-6-yl)-4-(tetrahydro-2H-pyran-4-yloxy)-7H-pyrrolo[2,3-d]pyrimidin-2-ylamino)benzamide] and Cc1nc2ccc(-c3c[nH]c4nc(Nc5ccc(C(=O)NCCO)cc5Cl)nc(OC5CCOCC5)c34)cc2o1 [Example 431, 3-chloro-N-(2-hydroxyethyl)-4-(5-(2-methylbenzo[d]oxazol-6-yl)-4-(tetrahydro-2H-pyran-4-yloxy)-7H-pyrrolo(2,3-d]pyrimidin-2-ylamino)benzamide] cannot be ordered by IC50: < 100 nM for the first, < 100 nM for the second.

Compared with COc1cc(C(=O)NC2COC2)ccc1Nc1nc(OC)c2c(-c3cc(C)nc(Cl)c3)c[nH]c2n1 [Example 437, 4-(5-(2-chloro-6-methylpyridin-4-yl)-4-methoxy-7H-pyrrolo[2,3-d]pyrimidin-2-ylamino)-3-methoxy-N-(oxetan-3-yl)benzamide], COc1cc(C(=O)NC2COC2)ccc1Nc1nc(OC)c2c(-c3cc(C)nc(F)c3)c[nH]c2n1 [Example 424, 4-(5-(2-fluoro-6-methylpyridin-4-yl)-4-methoxy-7H-pyrrolo[2,3-d]pyrimidin-2-ylamino)-3-methoxy-N-(oxetan-3-yl)benzamide] is higher in IC50: < 100 nM for the first, 100 to 400 nM for the second.

CNC(=O)c1ccc(-c2c[nH]c3nc(Nc4ccc(C(=O)NC)cc4Cl)nc(OC4CCOCC4)c23)cc1 [Example 421, 3-chloro-N-methyl-4-(5-(4-(methylcarbamoyl)phenyl)-4-(tetrahydro-2H-pyran-4-yloxy)-7H-pyrrolo[2,3-d]pyrimidin-2-ylamino)benzamide] and CNC(=O)c1ccc(-c2c[nH]c3nc(Nc4ccc(C(=O)NC)cc4Cl)nc(OC4CCCC4)c23)cc1 [Example 425, 3-chloro-4-(4-(cyclopentyloxy)-5-(4-(methylcarbamoyl)phenyl)-7H-pyrrolo[2,3-d]pyrimidin-2-ylamino)-N-methylbenzamide] cannot be ordered by IC50: < 100 nM for the first, < 100 nM for the second.

First: CNC(=O)c1ccc(Nc2nc(OC3CCC(C)(O)CC3)c3c(-c4ccc5nc(C)oc5c4)c[nH]c3n2)c(Cl)c1 (stereo not drawn) [Example 429, 3-chloro-4-(4-((1s,4s)-4-hydroxy-4-methylcyclohexyloxy)-5-(2-methylbenzo[d]oxazol-6-yl)-7H-pyrrolo[2,3-d]pyrimidin-2-ylamino)-N-methylbenzamide]
Second: COc1nc(Nc2ccc3c(cnn3C)c2C)nc2[nH]cc(-c3ccncc3)c12 [Example 419, N-(1,4-dimethyl-1H-indazol-5-yl)-4-methoxy-5-(pyridin-4-yl)-7H-pyrrolo[2,3-d]pyrimidin-2-amine]
The IC50 of the first is lower: < 100 nM for the first, 100 to 400 nM for the second. The first is the more potent here.

Same assay, conditions: Homo sapiens, CAL-51; CAL51 cell proliferation, Cell Titer Glo; read-out: Act. Level

CNC(=O)c1ccc(-c2c[nH]c3nc(Nc4ccc(C(=O)NC5CN(C)C5)cc4OC)nc(OC4CC4)c23)cc1 [Example 364, 4-(4-cyclopropoxy-5-(4-(methylcarbamoyl)phenyl)-7H-pyrrolo[2,3-d]pyrimidin-2-ylamino)-3-methoxy-N-(1-methylazetidin-3-yl)benzamide] and CNC(=O)c1ccc(-c2c[nH]c3nc(Nc4ccc(C(=O)NC5CN(C)C5)cc4OC)nc(OC4CCC4)c23)cc1 [Example 348, 4-(4-cyclobutoxy-5-(4-(methylcarbamoyl)phenyl)-7H-pyrrolo[2,3-d]pyrimidin-2-ylamino)-3-methoxy-N-(1-methylazetidin-3-yl)benzamide] fall in the same range of IC50: 100 to 400 nM for the first, 100 to 400 nM for the second.

Compared with COc1cc(C(=O)NC2CN(C)C2)ccc1Nc1nc(OC(C)(C)C)c2c(-c3ccc4nc(C)oc4c3)c[nH]c2n1 [Example 354, 4-(4-tert-butoxy-5-(2-methylbenzo[d]oxazol-6-yl)-7H-pyrrolo[2,3-d]pyrimidin-2-ylamino)-3-methoxy-N-(1-methylazetidin-3-yl)benzamide], COCCOc1nc(Nc2ccc(C(=O)NC3CN(C)C3)cc2OC)nc2[nH]cc(-c3ccc4nc(C)oc4c3)c12 [Example 386, 3-methoxy-4-(4-(2-methoxyethoxy)-5-(2-methylbenzo[d]oxazol-6-yl)-7H-pyrrolo[2,3-d]pyrimidin-2-ylamino)-N-(1-methylazetidin-3-yl)benzamide] is higher in IC50: < 100 nM for the first, 1000 to 10000 nM for the second. The first is the more potent here.

First: CNC(=O)c1ccc(-c2c[nH]c3nc(Nc4ccc(C(=O)NC5CN(C)C5)cc4OC)nc(O[C@H]4CCOC4)c23)cc1 [Example 375, (S)-3-methoxy-N-(1-methylazetidin-3-yl)-4-(5-(4-(methylcarbamoyl)phenyl)-4-(tetrahydrofuran-3-yloxy)-7H-pyrrolo[2,3-d]pyrimidin-2-ylamino)benzamide]
Second: CNC(=O)c1ccc(-c2c[nH]c3nc(Nc4ccc(C(=O)NC5CN(C)C5)cc4OC)nc(OC(C)(C)C)c23)cc1 [Example 355, 4-(4-tert-butoxy-5-(4-(methylcarbamoyl)phenyl)-7H-pyrrolo[2,3-d]pyrimidin-2-ylamino)-3-methoxy-N-(1-methylazetidin-3-yl)benzamide]
The IC50 of the first is higher: 400 to 1000 nM for the first, < 100 nM for the second. The second is the more potent here.

COc1cc(C(=O)NC2COC2)ccc1Nc1nc(O[C@H]2CCOC2)c2c(-c3ccc4nc(C)oc4c3)c[nH]c2n1 [Example 343, (S)-3-methoxy-4-(5-(2-methylbenzo[d]oxazol-6-yl)-4-(tetrahydrofuran-3-yloxy)-7H-pyrrolo[2,3-d]pyrimidin-2-ylamino)-N-(oxetan-3-yl)benzamide] and COc1cc(C(=O)NC2COC2)ccc1Nc1nc(OC2(C)CCC2)c2c(-c3ccc4nc(C)oc4c3)c[nH]c2n1 [Example 379, 3-methoxy-4-(5-(2-methylbenzo[d]oxazol-6-yl)-4-(1-methylcyclobutoxy)-7H-pyrrolo[2,3-d]pyrimidin-2-ylamino)-N-(oxetan-3-yl)benzamide] cannot be ordered by IC50: < 100 nM for the first, < 100 nM for the second.

First: CNC(=O)c1ccc(-c2c[nH]c3nc(Nc4ccc(C(=O)NC5COC5)cc4OC)nc(OCCOC)c23)cc1 [Example 373, 3-methoxy-4-(4-(2-methoxyethoxy)-5-(4-(methylcarbamoyl)phenyl)-7H-pyrrolo[2,3-d]pyrimidin-2-ylamino)-N-(oxetan-3-yl)benzamide]
Second: CNC(=O)c1ccc(-c2c[nH]c3nc(Nc4ccc(C(=O)NC5COC5)cc4OC)nc(OC4CC(F)(F)C4)c23)cc1 [Example 345, 4-(4-(3,3-difluorocyclobutoxy)-5-(4-(methylcarbamoyl)phenyl)-7H-pyrrolo[2,3-d]pyrimidin-2-ylamino)-3-methoxy-N-(oxetan-3-yl)benzamide]
The IC50 of the first is higher: 100 to 400 nM for the first, < 100 nM for the second. The second is the more potent here.

CNC(=O)c1ccc(Nc2nc(OC3CCCC3)c3c(-c4cccc(C#N)c4)c[nH]c3n2)c(OC)c1 [Example 324, 4-(5-(3-cyanophenyl)-4-(cyclopentyloxy)-7H-pyrrolo[2,3-d]pyrimidin-2-ylamino)-3-methoxy-N-methylbenzamide] and CNC(=O)c1ccc(Nc2nc(OC3CCCC3)c3c(-c4ccc(F)cc4C)c[nH]c3n2)c(OC)c1 [Example 319, 4-(4-(cyclopentyloxy)-5-(4-fluoro-2-methylphenyl)-7H-pyrrolo[2,3-d]pyrimidin-2-ylamino)-3-methoxy-N-methylbenzamide] fall in the same range of IC50: 1000 to 10000 nM for the first, 1000 to 10000 nM for the second.

First: COc1cc(C(=O)N2C[C@@H]2CO)ccc1Nc1nc(OC2CCCC2)c2c(-c3ccc4nc(C)oc4c3)c[nH]c2n1 [Example 346, (R)-(4-(4-(cyclopentyloxy)-5-(2-methylbenzo[d]oxazol-6-yl)-7H-pyrrolo[2,3-d]pyrimidin-2-ylamino)-3-methoxyphenyl)(2-(hydroxymethyl)aziridin-1-yl)methanone]
Second: CNC(=O)c1ccc(-c2c[nH]c3nc(Nc4ccc(C(=O)NC5COC5)cc4OC)nc(OC4CCC4)c23)cn1 [Example 352, 5-(4-cyclobutoxy-2-(2-methoxy-4-(oxetan-3-ylcarbamoyl)phenylamino)-7H-pyrrolo[2,3-d]pyrimidin-5-yl)-N-methylpicolinamide]
The IC50 of the first is lower: 100 to 400 nM for the first, 1000 to 10000 nM for the second.

First: COc1cc(-c2c[nH]c3nc(Nc4ccc(C(=O)NC5COC5)cc4OC)nc(OC)c23)ccn1 [Example 389, 3-methoxy-4-(4-methoxy-5-(2-methoxypyridin-4-yl)-7H-pyrrolo[2,3-d]pyrimidin-2-ylamino)-N-(oxetan-3-yl)benzamide]
Second: COc1cc(C(=O)NC2COC2)ccc1Nc1nc(OC)c2c(-c3ccnc(Cl)c3)c[nH]c2n1 [Example 394, 4-(5-(2-chloropyridin-4-yl)-4-methoxy-7H-pyrrolo[2,3-d]pyrimidin-2-ylamino)-3-methoxy-N-(oxetan-3-yl)benzamide]
The IC50 of the first is lower: < 100 nM for the first, 100 to 400 nM for the second.

First: COc1cc(C(=O)NC2COC2)ccc1Nc1nc(OC)c2c(-c3cc(C)nc(C)c3)c[nH]c2n1 [Example 384, 4-(5-(2,6-dimethylpyridin-4-yl)-4-methoxy-7H-pyrrolo[2,3-d]pyrimidin-2-ylamino)-3-methoxy-N-(oxetan-3-yl)benzamide]
Second: CNC(=O)c1ccc(-c2c[nH]c3nc(Nc4ccc(C(=O)NCCO)cc4OC)nc(OC4CCC4)c23)cc1 [Example 331, 4-(4-cyclobutoxy-5-(4-(methylcarbamoyl)phenyl)-7H-pyrrolo[2,3-d]pyrimidin-2-ylamino)-N-(2-hydroxyethyl)-3-methoxybenzamide]
The IC50 of the first is lower: < 100 nM for the first, 100 to 400 nM for the second.

Same assay, conditions: Homo sapiens, CAL-51; CAL51 cell proliferation; activity level class of IC50; read-out: Act. Level

In the case of CNC(=O)c1ccc(Nc2nc(OC3CCC(O)CC3)c3c(-c4ccc5nc(C)oc5c4)c[nH]c3n2)c(OC)c1 (stereo not drawn) [Example 137, 4-(4-((1r,4r)-4-hydroxycyclohexyloxy)-5-(2-methylbenzo[d]oxazol-6-yl)-7H-pyrrolo[2,3-d]pyrimidin-2-ylamino)-3-methoxy-N-methylbenzamide], the IC50 is reported as < 100 nM.
